The source of these data is PubChem BioAssay (NCI).

Holding throughout (assay): NCI-60 cell line screen, 48 h
The subject of test [1] is RXF 393 renal.
Test [2] relates to SW-620 colon.
Test [3] deals with DU-145 prostate.
The subject of test [4] is HCT-15 colon.
In test [5] the test system is HOP-62 NSCLC.
The test system of test [6] is NCI-H226 lung.
Test [7] concerns SF-295 CNS.
Test [8] has as its system SK-MEL-2 melanoma.
The subject of test [9] is EKVX NSCLC.
The test system of test [10] is SN12C renal.

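Compound exposure: 48 hours, 5 concentrations, 96-well plates. Here, GI50 denotes the concentration required for 50% inhibition of growth. TGI: concentration producing complete growth inhibition.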

With `CCCCCSC1C2C(=O)C(Br)=CC13CCNc1c(O)c4c5c(c13)=[N+]2CCC=5C=N4` (stereo not given), the GI50 was 1.87 µM in [1]; 0.545 µM in test [2]; 1.74 µM in test [3]; 2.04 µM in test [4]; 3.03 µM in [5]; 3.15 µM in [6]. The GI50 in [7] was 3.89 µM; in [8], 2.1 µM; in [9], 1.82 µM; in [10], 0.414 µM. Further, the TGI amounted to 4.42 µM in test [1]; 1.55 µM in test [2]; 3.72 µM in test [3]; 6.09 µM in test [4]; 5.8 µM in [5]; 6.32 µM in test [6]. In addition, the TGI in [7] came to 9.61 µM; in test [8] it was 5.6 µM; in [9], 5.07 µM; in [10], 1.12 µM.

Turning to `FC(F)(F)c1[nH]ncc1-c1nc2ccc3[nH]ncc3c2c2c1CCCC2`, the GI50 is 1.13 µM in test [1]; 1.75 µM in test [2]; 1.58 µM in [3]; 2.28 µM in test [4]; 1.17 µM in [5]; 2.26 µM in test [6]. For the same compound, the GI50 in test [7] is 1.69 µM; in test [8], 1.64 µM; in test [9] it was 1.99 µM; in test [10], 1.53 µM. The TGI in test [1] came to 2.35 µM; in test [2], 11 µM; in test [3] it was 10.9 µM; in test [4], 10.1 µM; in [5] it was 6.79 µM; in test [6], 12.4 µM. The TGI in test [7] worked out at 8.52 µM; in test [8], 3.61 µM; in [9], 7.29 µM; in test [10] it was 5.6 µM.

For `O=S(=O)(NCCO)c1cc[c]([Sb](=[O])([OH])[OH])cc1`, the GI50 in [1], in test [2], in test [3], in test [4], in test [5] and in test [6] was above 100 µM throughout. Further, the GI50 in test [7], in [8], in [9] and in [10] was above 100 µM each time. Further, the TGI in test [1], in [2], in test [3], in test [4], in test [5] and in test [6] was above 100 µM each time. For the same compound, the TGI in test [7], in test [8], in [9] and in test [10] was above 100 µM each time.

As for `N#C/C(=C\c1cccc2cnccc12)N1N=NC2C=CC=CC21` (stereo not given), the GI50 was 2.35 µM in test [1]; 3.35 µM in test [2]; 3.55 µM in test [3]; 1.74 µM in [4]; 2.95 µM in test [5]; 3.95 µM in [6]. For the same compound, the GI50 is 32.4 µM in test [7], 4.49 µM in test [8], 2.63 µM in test [9] and 3.24 µM in test [10]. Further, the TGI in [1] was 6.97 µM; in [2], above 100 µM; in test [3], above 100 µM; in test [4], above 100 µM; in test [5], 46.1 µM; in [6], above 100 µM. Moreover, the TGI in [7], in test [8], in test [9] and in test [10] was above 100 µM each time.

As for `Oc1c(CNCCNCc2cc(Cl)cc(Cc3ccccc3)c2O)cc(Cl)cc1Cc1ccccc1`, the GI50 in test [1] is 0.414 µM; in [2] it was 0.472 µM; in test [3], 0.303 µM; in [4], 0.139 µM; in test [5] it was 0.307 µM; in [6] it was 0.438 µM. Also, the GI50 in [7] was 0.448 µM; in [8], 1.82 µM; in test [9], 0.193 µM; in test [10], 0.483 µM. The TGI in test [1] amounted to 3.97 µM; in test [2], 30.7 µM; in [3] it was 57.1 µM; in test [4] it was 14.9 µM; in test [5], 47.3 µM; in test [6] it was 15.5 µM. Also, the TGI was 4.1 µM in test [7], 23.9 µM in test [8], above 100 µM in test [9] and 19.4 µM in test [10].

For the compound `C#CC(=O)OCC#CCOC(=O)C#C`, the TGI in test [1] was 36.9 µM; in test [2], 40.6 µM; in test [3] it was 90.3 µM; in [4], 36.5 µM; in test [5], 46.1 µM; in test [6], 40.3 µM. The TGI in [7] is above 100 µM; in test [8] it was 40.1 µM; in [9] it was 29.9 µM; in test [10] it was 82.3 µM.

`CCOC(=O)c1nc2cc(C(F)(F)F)ccc2[n+]([O-])c1C`: the GI50 is 33.9 µM in [1]; above 100 µM in test [2]; above 100 µM in test [3]; above 100 µM in [4]; above 100 µM in [5]; above 100 µM in test [6]. Further, the GI50 in test [7], in test [8], in test [9] and in test [10] was above 100 µM each time. Further, the TGI in test [1], in test [2], in [3], in [4], in test [5] and in [6] was above 100 µM throughout. Also, the TGI in test [7], in [8], in test [9] and in test [10] was above 100 µM in each case.

For `CC/C=C\C[C@H](O)C/C=C1/C(=O)C=C[C@@H]1C/C=C\CCCC(=O)NC`, the GI50 in test [1] was 1.67 µM; in test [2], 1.28 µM; in test [3], 2.73 µM; in test [4] it was 1.52 µM; in test [5], 2.3 µM; in test [6], 2.15 µM. Moreover, the GI50 in test [7] is 2.44 µM; in [8], 2.24 µM; in [9], 3.71 µM; in test [10] it was 2.33 µM. Further, the TGI in [1] worked out at 3.17 µM; in test [2], 4.63 µM; in [3], 12.7 µM; in [4], 5.09 µM; in test [5], 5.33 µM; in [6], 4.95 µM. Besides, the TGI in test [7] worked out at 6.08 µM; in test [8] it was 6.35 µM; in test [9] it was 15.2 µM; in [10] it was 8.5 µM.

For `CN(C)c1ccc(/C=N/NC(=O)c2cccc3ccccc23)c(Cl)c1`, the GI50 in test [1] was 1.31 µM; in [2], 0.578 µM; in test [3], 4.07 µM; in [4], 0.727 µM; in test [5], 4.18 µM; in test [6], 12.3 µM. The GI50 in [7] was 0.588 µM; in [8], 0.815 µM; in [9], 3.51 µM; in test [10], 8.85 µM. Besides, the TGI in test [1] was 10.8 µM; in test [2], above 100 µM; in [3], above 100 µM; in test [4] it was above 100 µM; in [5], 33.4 µM; in test [6], above 100 µM. For the same compound, the TGI in [7] is 9.96 µM; in test [8], 16.5 µM; in [9] it was above 100 µM; in [10], above 100 µM.

Turning to `COc1cc2c(cc1O)C(c1cc(O)c(O)c(OC)c1)C(O)(C(=O)O)C(CO)C2O` (stereo not given), the TGI was above 100 µM in test [1]; 76.5 µM in [2]; above 100 µM in test [3]; above 100 µM in test [4]; above 100 µM in test [5]; above 100 µM in test [6]. Moreover, the TGI was above 100 µM in [7], above 100 µM in [8], 36.9 µM in test [9] and 32.6 µM in test [10].

Regarding `CNCCCn1c2c(c3ccc(F)cc3c1=O)C(=O)c1cc(OC)cnc1-2`, the GI50 in [1] was 0.316 µM; in [2] it was 0.184 µM; in [3] it was 0.202 µM; in test [4], 0.25 µM; in test [5], 0.142 µM; in [6], 0.163 µM. Moreover, the GI50 in [7] is 0.185 µM; in test [8], 1.6 µM; in test [9] it was 0.301 µM; in [10], 0.211 µM. The TGI in [1] was 1.38 µM; in [2], 2.03 µM; in [3] it was 1.12 µM; in test [4] it was 3.86 µM; in [5] it was 0.42 µM; in test [6], 0.356 µM. The TGI came to 0.78 µM in test [7], 7.37 µM in test [8], 1.96 µM in test [9] and 1.34 µM in test [10].

Consider `CN1CCN(c2ccc(C(=O)Nc3cccc(C#Cc4cccc5[nH]nc(N)c45)c3)cc2C(F)(F)F)CC1`, for which the GI50 in test [1] is 0.799 µM; in test [2], 0.608 µM; in [3], 1.08 µM; in [4], 0.644 µM; in test [5], 0.792 µM; in test [6] it was 2.12 µM. The GI50 was 0.654 µM in test [7], 1.7 µM in test [8], 1.6 µM in test [9] and 1.2 µM in test [10]. In addition, the TGI in [1] came to 2.31 µM; in test [2], 1.26 µM; in test [3], 3.2 µM; in [4], 1.27 µM; in [5], 2.19 µM; in test [6], 6.94 µM. Further, the TGI in [7] was 1.39 µM; in [8], 5.49 µM; in test [9] it was 5.63 µM; in test [10], 4.54 µM.

Take `CC(=O)/C(=C\c1c(-c2ccccc2)[nH]c2ccccc12)S(=O)(=O)c1ccccc1`: the GI50 was 1.25 µM in [1]; 0.73 µM in [2]; 2.94 µM in test [3]; 0.834 µM in test [4]; 1.18 µM in [5]; 1.92 µM in test [6]. In addition, the GI50 is 2.33 µM in test [7], 1.39 µM in [8], 3.22 µM in [9] and 1.82 µM in test [10]. Further, the TGI came to 2.8 µM in test [1]; 7.14 µM in [2]; 9.31 µM in test [3]; 3.21 µM in test [4]; 3.03 µM in test [5]; 5.21 µM in test [6]. Besides, the TGI in test [7] is 10.2 µM; in test [8] it was 5.3 µM; in [9] it was above 100 µM; in [10] it was 9.59 µM.

As for `CC(C)(C)OC(=O)NCCCCCCCCCCn1c2c(c3ccccc3c1=O)C(=O)c1ccccc1-2`, the GI50 was 13 µM in test [1]; above 100 µM in test [2]; 96.6 µM in test [3]; above 100 µM in [4]; 29.1 µM in test [5]; above 100 µM in test [6]. In addition, the GI50 in test [7] was 30.9 µM; in test [8], 21.1 µM; in [9] it was above 100 µM; in [10], above 100 µM. The TGI is 37.4 µM in test [1]; above 100 µM in test [2]; above 100 µM in test [3]; above 100 µM in test [4]; above 100 µM in [5]; above 100 µM in test [6]. The TGI is above 100 µM in test [7], 49.7 µM in [8], above 100 µM in test [9] and above 100 µM in [10].

Take `Nc1nc(-c2cc(-c3cccc4ccccc34)nc(N)n2)cc(-c2cccc3ccccc23)n1`: the TGI in [1], in test [2], in test [3], in [4], in test [5] and in [6] was above 100 µM each time. Besides, the TGI in test [7], in test [8], in test [9] and in test [10] was above 100 µM each time.

Regarding `Clc1ccc(N2CCC(N3CCCC3)CC2)cc1-c1nc2ccccc2[nH]1`, the GI50 in test [1] is 12.9 µM; in test [2], 16.8 µM; in [3], 36.7 µM; in test [4] it was 18.7 µM; in test [5] it was 19.8 µM; in test [6], 18.4 µM. The GI50 was 17.4 µM in test [7], 19.3 µM in [8], 37.9 µM in [9] and 25 µM in [10]. In addition, the TGI in test [1] is 26.8 µM; in test [2], 36 µM; in [3] it was above 100 µM; in test [4] it was 38.5 µM; in test [5], 40.1 µM; in [6], 43.8 µM. Besides, the TGI was 36.2 µM in test [7], 36.6 µM in test [8], above 100 µM in [9] and above 73.7 µM in test [10].
